Experimental data as given in patent US20060074073A1, “Therapeutic combinations comprising poly (ADP-ribose) polymerases inhibitor” (AGOURON PHARMACEUTICALS, INC., priority 2004, published 2006).
Marks after values point to notes of the source that are not given here.

Columns and labels:
human H460 NSCLC cells = experiment: In vitro chemosensitization of standard chemotherapeutic agents; type: cell-based
PARP = experiment: Tumor PARP catalytic activity, 32P-NAD incorporation in SW620 tumor homogenates of treated animals; type: in vivo, mice; details: temozolomide alone, oral gavage
Experimental: Tumours were excised and were snap frozen in liquid nitrogen and stored at −80° C. until homogenised for analysis. The specimen was defrosted on ice and the wet weight documented. The tissue was homogenised using a Pro 2000 instrument (Pro Scientific Inc, Monroe, Conn., USA) in 3 volumes (i.e. 1 mg plus 3 μl isotonic buffer −7 mM Hepes, 26 mM KCl, 0.1 mM dextran, 0.4 mM EGTA, 0.5 mM MgCl2, 45 mM sucrose, pH 7.8), giving a homogenate with an overall dilution of 1 in 4. The homogenate was kept on ice throughout the process, and homogenisation was performed in 10 second bursts to prevent undue warming of the sample. Prior to assay the samples were further diluted with isotonic buffer where necessary to give a final dilution of 1 in 40 for [^32P]NAD incorporation assay or 1 in 1000 for immunoblot aaasy.
Briefly, cells were suspended in hypotonic buffer (9 mM HEPES pH 7.8, 4.5% (v/v) dextran, 4.5 mM MgCl2 and 5 mM DTT) at 1.5×10^7/ml on ice for 30 minutes then 9 vol of isotonic buffer (40 mM HEPES pH 7.8, 130 mM KCl, 4% (v/v) dextran, 2 mM EGTA, 2.3 mM MgCl2, 225 mM sucrose and 2.5 mM DTT) was added. The reaction was started by adding 300 μl cells to 100 μl 300 μM NAD^+ containing [^32P]-NAD^+ (Amersham, UK), and terminated by the addition of 2 ml ice cold 10% (w/v) TCA+10% (w/v) sodium pyrophosphate. After 30 min on ice the precipitated ^32P—labelled ADP-ribose polymers were filtered on Whatman GC/C filters (Whatman Intemational Ltd, Kent, UK), washed 5 times with 1% (v/v) TCA/1% (v/v) sodium pyrophosphate, dried and counted. PARP inhibitory IC50 values were calculated from computer-fitted curves (GraphPad Software, Inc., San Diego, Calif.).
Tumour homogenates were assayed in a similar manner; however, the homogenisation process introduces sufficient DNA damage to maximally stimulate PARP activity and oligonucleotide was not therefore required. Results were expressed in terms of pmol PAR former per mg tumour.
Preparation of Tumour/Tissue Samples • 1. The frozen tumour samples are weighed. • 2. 3 volumes (i.e. 3 μl solution added for each 1 mg tissue) of isotonic buffer plus DTT is added to the tumour sample. This is stored on ice until and during homogenisation. • 3. The sample is homogenised on ice within a Class II cabinet for 10-second bursts until no detectable macroscopic pieces of tissue are visible. • 4. Sufficient volume of the homogenate is diluted 1 in 10 with isotonic buffer plus DTT to provide an overall dilution of 1 in 40 from the original sample. A final volume of 3 ml is sufficient for triplicate sampling and a subsequent protein assay. • 5. The diluted homogenate is stored on ice and assayed within one hour as below.
PARP Assay of Tumour/Tissue Samples • 1. ^32P 600 μM NAD solution is prepared fresh on the day of experiment as detailed above. Oligonucleotide stock is removed from storage and defrosted. • 2. Water bath is warmed to 26° C. and set to agitate at 70 oscillations per minute.
3. Reaction test tubes are set up as per table A for the QC samples and as per table B for the homogenate.
• 4. Each QC sample is assayed in triplicate, with T0, +oligo and −oligo samples ×3. (Total of 9 tubes per sample, if low cell counts −oligo samples are omitted.) Homogenates are also assayed in triplicate, with T0 and reaction samples ×3. (Total 6 tubes per sample). • 5. 2 ml ice cold 10% TCA+10% NaPPi is added to the T0 tubes prior to addition of homogenate or cells, to correct for non-specific binding of radio-label to the filter. • 6. Reaction test tubes homogenates and QC cells are warmed in the water bath to 26° C. for 7 minutes. • 7. Each preparation is vortexed briefly and the reaction is started by adding 300 μl of this to each reaction tube. • 8. The reaction is stopped exactly 6 minutes after addition of homogenate by adding 2 ml of ice cold 10% TCA+10% NaPPi and vortexing. • 9. The tube is then incubated on ice for at least one hour prior to filtration. • 10. […]

SW620 xenograft = experiment: In vivo antitumor efficacy with irinotecan, SW620 xenograft; parameters: species or system mice
From the text: In no combination study was antagonism observed.

[1] = GI50 single agent/GI50 agent +0.4 μM compound of formula 1 as glucuronate salt
[2] = GI50 single agent/GI50 agent +0.4 μM Compound I (phosphate salt) instead of glucuronate salt

Compound	PF50 (H460) (human H460 NSCLC cells; [1])	further results
O=c1[nH]cc(F)c(=O)[nH]1 [5-Fluorouracil]	0.92	–
Nc1nc2nc[nH]c2c(=S)[nH]1 [6-thioguanine]	1.1	–
N.N.[Cl][Pt][Cl] [Cisplatin]	1.2	–
COc1cccc2c1C(=O)c1c(O)c3c(c(O)c1C2=O)C[C@@](O)(C(=O)CO)C[C@@H]3O[C@H]1C[C@H](N)[C@H](O)[C@H](C)O1 [Doxorubicin]	1.1	–
COc1cc([C@@H]2c3cc4c(cc3[C@@H](O[C@@H]3O[C@@H]5CO[C@@H](C)O[C@H]5[C@H](O)[C@H]3O)[C@H]3COC(=O)[C@H]23)OCO4)cc(OC)c1O [Etoposide]	–	PF50 (H460) (human H460 NSCLC cells; [2]): 0.75^b
Nc1ccn([C@@H]2O[C@H](CO)[C@@H](O)C2(F)F)c(=O)n1 [Gemcitabine]	1.2	–
O=C1[O][Pt]2([NH][C@@H]3CCCC[C@H]3[NH]2)[O]C1=O [Oxaliplatin]	–	PF50 (H460) (human H460 NSCLC cells; [2]): 0.98^b
CC(=O)O[C@H]1C(=O)[C@@]2(C)[C@H]([C@H](OC(=O)c3ccccc3)[C@]3(O)C[C@H](OC(=O)[C@H](O)[C@@H](NC(=O)c4ccccc4)c4ccccc4)C(C)=C1C3(C)C)[C@]1(OC(C)=O)CO[C@@H]1C[C@@H]2O [Paclitaxel]	0.77	–
CCc1c2c(nc3ccc(O)cc13)-c1cc3c(c(=O)n1C2)COC(=O)[C@]3(O)CC [SN-38]	2.2	–
Cn1nnc2c(C(N)=O)ncn2c1=O [Temozolomide, reference compound]	–	PF50 (H460) (human H460 NSCLC cells; [2]): 3.7^b; PARP Activity (%) (PARP): 100%
CC[C@@]1(O)C(=O)OCc2c1cc1n(c2=O)Cc2cc3c(CN(C)C)c(O)ccc3nc2-1 [Topotecan]	1.6	–
CCc1c2c(nc3ccc(OC(=O)N4CCC(N5CCCCC5)CC4)cc13)-c1cc3c(c(=O)n1C2)COC(=O)[C@]3(O)CC [irinotecan, reference compound]	–	inhibition of SW620 tumor growth as single agent (SW620 xenograft; irinotecan 25 mg/kg, QW×3 IP): did not significantly inhibit SW620 tumor growth; toxicity (SW620 xenograft; irinotecan single agent groups): No significant toxicity
